Experimental data: PubChem BioAssay (NCI)
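Test compounds were applied to cells in 96-well plates for 48 hours at 5 doses. TGI denotes the concentration required for complete inhibition of growth.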

Assays:
Assay in all cases: NCI anticancer screen, dose series, 48 h
CAKI-1 renal = test system: CAKI-1 renal
SF-539 CNS = test system: SF-539 CNS
SK-MEL-28 melanoma = test system: SK-MEL-28 melanoma
SF-268 CNS = test system: SF-268 CNS
HCT-15 colon = test system: HCT-15 colon
786-0 renal = test system: 786-0 renal
SK-MEL-2 melanoma = test system: SK-MEL-2 melanoma
EKVX NSCLC = test system: EKVX NSCLC
K-562 leukemia = test system: K-562 leukemia
SNB-75 CNS = test system: SNB-75 CNS
SW-620 colon = test system: SW-620 colon
U251 CNS = test system: U251 CNS
NCI-H23 lung = test system: NCI-H23 lung
MCF7 breast = test system: MCF7 breast
KM12 colon = test system: KM12 colon
NCI-H460 lung = test system: NCI-H460 lung
OVCAR-5 ovarian = test system: OVCAR-5 ovarian
SNB-19 CNS = test system: SNB-19 CNS
SN12C renal = test system: SN12C renal
NCI-H522 lung = test system: NCI-H522 lung
RXF 393 renal = test system: RXF 393 renal
ACHN renal = test system: ACHN renal
MDA-MB-435 = test system: MDA-MB-435
NCI/ADR-RES ovarian = test system: NCI/ADR-RES ovarian
UO-31 renal = test system: UO-31 renal
HT29 colon = test system: HT29 colon
CCRF-CEM leukemia = test system: CCRF-CEM leukemia
MALME-3M melanoma = test system: MALME-3M melanoma
HS 578T breast = test system: HS 578T breast
A498 renal = test system: A498 renal
SK-OV-3 ovarian = test system: SK-OV-3 ovarian
SK-MEL-5 melanoma = test system: SK-MEL-5 melanoma
HCC-2998 colon = test system: HCC-2998 colon
HOP-62 NSCLC = test system: HOP-62 NSCLC
UACC-62 melanoma = test system: UACC-62 melanoma
LOX IMVI melanoma = test system: LOX IMVI melanoma
HL-60(TB) leukemia = test system: HL-60(TB) leukemia
OVCAR-4 ovarian = test system: OVCAR-4 ovarian
OVCAR-8 ovarian = test system: OVCAR-8 ovarian
HOP-92 NSCLC = test system: HOP-92 NSCLC
COLO 205 colon = test system: COLO 205 colon
TK-10 renal = test system: TK-10 renal
PC-3 prostate = test system: PC-3 prostate
MDA-N = test system: MDA-N
A549 NSCLC = test system: A549 NSCLC
BT-549 breast = test system: BT-549 breast
RPMI-8226 leukemia = test system: RPMI-8226 leukemia
T-47D breast = test system: T-47D breast
MDA-MB-231 breast = test system: MDA-MB-231 breast
HCT-116 colon = test system: HCT-116 colon
M14 melanoma = test system: M14 melanoma
OVCAR-3 ovarian = test system: OVCAR-3 ovarian
DU-145 prostate = test system: DU-145 prostate
IGROV1 ovarian = test system: IGROV1 ovarian
UACC-257 melanoma = test system: UACC-257 melanoma
MOLT-4 leukemia = test system: MOLT-4 leukemia
SF-295 CNS = test system: SF-295 CNS
NCI-H226 lung = test system: NCI-H226 lung
SR leukemia = test system: SR leukemia

CN(CCNC(=O)c1nn(-c2ccccc2)c2c1Cc1ccccc1-2)CCNC(=O)c1nn(-c2ccccc2)c2c1Cc1ccccc1-2
TGI (CAKI-1 renal): 7.28 µM | TGI (SF-539 CNS): 4.11 µM | TGI (SK-MEL-28 melanoma): 3.24 µM | TGI (SF-268 CNS): 4.74 µM | TGI (HCT-15 colon): 3.67 µM | TGI (786-0 renal): 3.08 µM | TGI (SK-MEL-2 melanoma): 3.38 µM | TGI (EKVX NSCLC): 9.65 µM | TGI (K-562 leukemia): 6.59 µM | TGI (SNB-75 CNS): 3.5 µM | TGI (SW-620 colon): 3.09 µM | TGI (U251 CNS): 3.09 µM | TGI (NCI-H23 lung): 3.7 µM | TGI (MCF7 breast): 3.19 µM | TGI (KM12 colon): 3.69 µM | TGI (NCI-H460 lung): 3.15 µM | TGI (OVCAR-5 ovarian): 6.8 µM | TGI (SNB-19 CNS): 4.43 µM | TGI (SN12C renal): 3.61 µM | TGI (NCI-H522 lung): 3.15 µM | TGI (RXF 393 renal): 3.07 µM | TGI (ACHN renal): 3.44 µM | TGI (MDA-MB-435): 3.17 µM | TGI (NCI/ADR-RES ovarian): 6.36 µM | TGI (UO-31 renal): 3.22 µM | TGI (HT29 colon): 3.73 µM | TGI (CCRF-CEM leukemia): 4.68 µM | TGI (MALME-3M melanoma): 3.34 µM | TGI (HS 578T breast): 3.77 µM | TGI (A498 renal): 3.36 µM | TGI (SK-OV-3 ovarian): 4.31 µM | TGI (SK-MEL-5 melanoma): 3.38 µM | TGI (HCC-2998 colon): 3.13 µM | TGI (HOP-62 NSCLC): 3.6 µM | TGI (UACC-62 melanoma): 3.1 µM | TGI (LOX IMVI melanoma): 3.32 µM | TGI (HL-60(TB) leukemia): 2.91 µM | TGI (OVCAR-4 ovarian): 4.48 µM | TGI (OVCAR-8 ovarian): 3.17 µM | TGI (HOP-92 NSCLC): 3.01 µM | TGI (COLO 205 colon): 3.32 µM | TGI (TK-10 renal): 4.3 µM | TGI (PC-3 prostate): 4.81 µM | TGI (MDA-N): 3.16 µM | TGI (A549 NSCLC): 4.93 µM | TGI (BT-549 breast): 18.7 µM | TGI (RPMI-8226 leukemia): 14.1 µM | TGI (T-47D breast): > 22.5 µM | TGI (MDA-MB-231 breast): 3.39 µM | TGI (HCT-116 colon): 3.13 µM | TGI (M14 melanoma): 3.27 µM | TGI (OVCAR-3 ovarian): 3.52 µM | TGI (DU-145 prostate): 6.75 µM | TGI (IGROV1 ovarian): 3.31 µM | TGI (UACC-257 melanoma): 3.42 µM | TGI (MOLT-4 leukemia): 11 µM | TGI (SF-295 CNS): 3.34 µM

N=C(N)C1CN(CCCCCCCCCCN2CC(C(=N)N)C(=O)NC2=O)C(=O)NC1=O (configuration not stated)
TGI (CAKI-1 renal): > 10 µM | TGI (SF-539 CNS): > 10 µM | TGI (HCT-15 colon): > 10 µM | TGI (786-0 renal): > 10 µM | TGI (SK-MEL-2 melanoma): > 10 µM | TGI (EKVX NSCLC): > 10 µM | TGI (K-562 leukemia): > 10 µM | TGI (SNB-75 CNS): > 10 µM | TGI (SW-620 colon): > 10 µM | TGI (U251 CNS): > 10 µM | TGI (NCI-H23 lung): > 10 µM | TGI (MCF7 breast): > 10 µM | TGI (KM12 colon): > 10 µM | TGI (NCI-H460 lung): > 10 µM | TGI (OVCAR-5 ovarian): > 10 µM | TGI (SNB-19 CNS): > 10 µM | TGI (SN12C renal): > 10 µM | TGI (NCI-H522 lung): > 10 µM | TGI (RXF 393 renal): > 10 µM | TGI (ACHN renal): > 10 µM | TGI (MDA-MB-435): > 10 µM | TGI (NCI/ADR-RES ovarian): > 10 µM | TGI (HT29 colon): > 10 µM | TGI (CCRF-CEM leukemia): > 10 µM | TGI (MALME-3M melanoma): > 10 µM | TGI (HS 578T breast): > 10 µM | TGI (A498 renal): > 10 µM | TGI (NCI-H226 lung): > 10 µM | TGI (SK-OV-3 ovarian): > 10 µM | TGI (SK-MEL-5 melanoma): > 10 µM | TGI (HCC-2998 colon): > 10 µM | TGI (HOP-62 NSCLC): > 10 µM | TGI (UACC-62 melanoma): > 10 µM | TGI (LOX IMVI melanoma): > 10 µM | TGI (HL-60(TB) leukemia): > 10 µM | TGI (OVCAR-4 ovarian): > 10 µM | TGI (OVCAR-8 ovarian): > 10 µM | TGI (HOP-92 NSCLC): > 10 µM | TGI (COLO 205 colon): > 10 µM | TGI (TK-10 renal): > 10 µM | TGI (PC-3 prostate): > 10 µM | TGI (SR leukemia): > 10 µM | TGI (MDA-N): > 10 µM | TGI (A549 NSCLC): > 10 µM | TGI (BT-549 breast): > 10 µM | TGI (RPMI-8226 leukemia): > 10 µM | TGI (T-47D breast): > 10 µM | TGI (MDA-MB-231 breast): > 10 µM | TGI (HCT-116 colon): > 10 µM | TGI (M14 melanoma): > 10 µM | TGI (OVCAR-3 ovarian): > 10 µM | TGI (IGROV1 ovarian): > 10 µM | TGI (UACC-257 melanoma): > 10 µM | TGI (MOLT-4 leukemia): > 10 µM | TGI (SF-295 CNS): > 10 µM
